Data reported in US5189211A, “Sulfonamide derivatives” (Taisho Pharmaceutical Co., Ltd., priority 1990, dated 1993).
Read-outs that look alike come from different tables or passages of the source.

Columns and labels:
[1] = tested on: blood platelet aggregation; assay: In vitro test in rabbit: inhibition of U-46619-induced blood platelet aggregation in platelet rich plasma (thromboxane A2 antagonism); assay type: cell-based, male New Zealand strain house rabbits; conditions: rabbit PRP, U-46619 final concentration 5 μM, 37° C., 3 minutes preincubation, measured for 5 minutes, read-out: IC50 (concentration of the test drug required to bring 50% inhibition to the maximum aggregation rate)
Experimental: Experiment [In Vitro Test in Rabbit]
The remaining blood was centrifuged at 1500 g for 10 minutes to give platelet poor prasma (PPP). Platelet count of PRP was adjusted to 50-60×10^4 /μl by dilution of PRP by PPP.
Namely, a compound of Formula I as a test drug was dissolved in dimethyl sulfoxide and adjusted to the desired concentration with physiological saline solution.

[2] = tested on: thrombocytopenia; assay: Test of acute thrombocytopenia in mice (U-46619-induced); assay type: in vivo, male ICR mice; conditions: administered peritoneally 30 seconds prior to U-46619 25 μg/kg caudal vein, platelet count 30 seconds after injection, class by dose giving more than 50% inhibition
Experimental: Experiment 2 [Test of Acute Thrombocytopenia in Mice]
Male ICR mice weighting 25 g were used (7-11 animals for each group).
Thrombocytopenia was induced by injection of an aggregation-inducing substance (U-46619) having thromboxane A2 -like action in amount of 25 μg/kg from the caudal vein. At 30 seconds after injection of U-46619, 20 μl of the blood was collected from the femoral artery, and the platelet counts were immediately measured by means of an automatic blood cell counter (CC-180A, made by Toa Iyoudenshi Co.).
The compound of Formula I was suspended in 5% gum arabic solution and administered peritoneally to the test animals 30 seconds prior to injection of U-46619. As a comparative drug, BM was tested as above.
The inhibition ratio of the thrombocytopenia was calculated by the proportion of the decrease ratio of platelet count of the group treated with the test drug to that of the group with 5% gum arabic solution, and the activity was determined by the following criterion.
+: More than 50% inhibition at a dose of 1.0 mg/kg
++: More than 50% inhibition at a dose of 0.3 mg/kg
+++: More than 50% inhibition at a dose of 0.1 mg/kg

[3] = Oryctolagus cuniculus, Platelet

IC50 [1, 3]	Compound	IC50 [1]	Activity (inhibition ratio of the thrombocytopenia) [2]
–	4-[2-(4-Methylsulfonylamino)ethylthio]phenylacetic acid [Compound No. 94]	3100 nM	–
12000 nM	O=C(O)COc1ccc(CCNS(=O)(=O)c2ccccc2)cc1 [BM, 4-[2-(phenylsulfonylamino)ethyl]phenoxyacetic acid, reference compound]	–	+ (More than 50% inhibition at a dose of 1.0 mg/kg)
1100 nM	O=C(O)CCc1ccc(SCCNS(=O)(=O)c2ccc(Cl)cc2)cc1 [Compound No. 52, 3-{4-[2-(4-chlorophenylsulfonylamino)ethylthio]phenyl}propionic acid]	–	–
5800 nM	Cc1ccc(S(=O)(=O)NCCSc2ccc(CCC(=O)O)cc2)cc1 [Compound No. 53, 3-{4-[2-(4-Methylphenylsulfonylamino)ethylthio]phenyl}propionic acid]	–	–
2400 nM	O=C(O)CCc1ccc(SCCNS(=O)(=O)c2ccc(F)cc2)cc1 [Compound No. 54, 3-{4-[2-(4-Fluorophenylsulfonylamino)ethylthio]phenyl}propionic acid]	–	–
1700 nM	O=C(O)CCc1ccc(SCCNS(=O)(=O)c2ccc(Br)cc2)cc1 [Compound No. 55, 3-{4-[2-(4-Bromophenylsulfonylamino)ethylthio]phenyl}propionic acid]	–	–
7300 nM	CCOC(=O)COc1ccc(CSCCNS(=O)(=O)c2ccc(Cl)cc2)cc1 [Compound No. 63, Ethyl 4-[2-(4-chlorophenylsulfonylamino)ethylthiomethyl]phenoxyacetate]	–	–
1800 nM	O=C(O)COc1c(F)cc(SCCNS(=O)(=O)c2ccccc2)cc1F [Compound No. 67, 2,6-difluoro-4-[2-(phenylsulfonylamino)ethylthio]phenoxyacetic acid]	–	+ (More than 50% inhibition at a dose of 1.0 mg/kg)
300 nM	O=C(O)COc1c(F)cc(SCCNS(=O)(=O)c2ccc(Cl)cc2)cc1F [Compound No. 68, 2.6-Difluoro-4-[2-(4-chlorophenylsulfonylamino)ethylthio]phenoxyacetic acid]	–	+++ (More than 50% inhibition at a dose of 0.1 mg/kg)
540 nM	Cc1ccc(S(=O)(=O)NCCSc2cc(F)c(OCC(=O)O)c(F)c2)cc1 [Compound No. 69, 2,6-Difluoro-4-[2-(4-methylphenylsulfonylamino)ethylthio]phenoxyacetic acid]	–	++ (More than 50% inhibition at a dose of 0.3 mg/kg)
1500 nM	O=C(O)COc1ccc(SCCNS(=O)(=O)c2ccc(Cl)cc2)cc1F [Compound No. 71, 2-Fluoro-4-[2-(4-chlorophenylsulfonylamino)ethylthio]phenoxyacetic acid]	–	+ (More than 50% inhibition at a dose of 1.0 mg/kg)
4500 nM	O=C(O)COc1ccc(SCCNS(=O)(=O)c2ccc(Cl)cc2)cc1 [Compound No. 74, 4-[2-(4-Chlorophenylsulfonylamino)ethylthio]phenoxyacetic acid]	–	–
5200 nM	O=C(O)COc1ccc(SCCNS(=O)(=O)c2ccc(Br)cc2)cc1 [Compound No. 78, 4-[2-(4-Bromophenylsulfonylamino)ethylthio]phenoxyacetic acid]	–	–
1500 nM	O=C(O)Cc1ccc(SCCNS(=O)(=O)c2ccc(Cl)cc2)cc1 [Compound No. 93, 4-[2-(4-Chlorophenylsulfonylamino)ethylthio]phenylacetic acid]	–	+ (More than 50% inhibition at a dose of 1.0 mg/kg)
1500 nM	O=C(O)CCc1ccc(SCCNS(=O)(=O)c2ccc([N+](=O)[O-])cc2)cc1 [Compound No. 103, 3-{4-[2-(4-Nitrophenylsulfonylamino)ethylthio]phenyl}propionic acid]	–	–
4500 nM	O=C(O)COc1ccc(SCCNS(=O)(=O)c2ccc(F)cc2)cc1F [Compound No. 105, 2-Fluoro-4-[2-(4-fluorophenylsulfonylamino)ethylthio]phenoxyacetic acid]	–	–
2000 nM	O=C(O)COc1ccc(SCCNS(=O)(=O)c2ccc(Br)cc2)cc1F [Compound No. 106, 2-Fluoro-4-[2-(4-bromophenylsulfonylamino)ethylthio]phenoxyacetic acid]	–	–
7400 nM	COc1ccc(S(=O)(=O)NCCSc2ccc(OCC(=O)O)c(F)c2)cc1 [Compound No. 107, 2-Fluoro-4-[2-(4-methoxyphenylsulfonylamino)ethylthio]phenoxyacetic acid]	–	–
630 nM	O=C(O)Cc1ccc(SCCNS(=O)(=O)c2ccc(F)cc2)cc1 [Compound No. 112, 4-[2-(4-Fluorophenylsulfonylamino)ethylthio]phenylacetic acid]	–	–
300 nM	O=C(O)Cc1ccc(SCCNS(=O)(=O)c2ccc(Br)cc2)cc1 [Compound No. 113, 4-[2-(4-Bromophenylsulfonylamino)ethylthio]phenylacetic acid]	–	–
920 nM	COc1ccc(S(=O)(=O)NCCSc2ccc(CC(=O)O)cc2)cc1 [Compound No. 114, 4-[2-(4-Methoxyphenylsulfonylamino)ethylthio]phenylacetic acid]	–	–
930 nM	O=C(O)Cc1ccc(SCCNS(=O)(=O)c2ccc([N+](=O)[O-])cc2)cc1 [Compound No. 115, 4-[2-(4-Nitrophenylsulfonylamino)ethylthio]phenylacetic acid]	–	–
580 nM	O=C(O)COc1c(F)cc(SCCNS(=O)(=O)c2ccc(F)cc2)cc1F [Compound No. 119, 2,6-Difluoro-4-[2-(4-fluorophenylsulfonylamino)ethylthio]phenoxyacetic acid]	–	–
330 nM	O=C(O)COc1c(F)cc(SCCNS(=O)(=O)c2ccc(Br)cc2)cc1F [Compound No. 120, 2,6-Difluoro-4-[2-(4-bromophenylsulfonylamino)ethylthio]phenoxyacetic acid]	–	–
750 nM	O=C(O)COc1c(F)cc(SCCNS(=O)(=O)c2ccc([N+](=O)[O-])cc2)cc1F [Compound No. 121, 2,6-Difluoro-4-[2-(4-nitrophenylsulfonylamino)ethylthio]phenoxyacetic acid]	–	–
670 nM	COc1ccc(S(=O)(=O)NCCSc2cc(F)c(OCC(=O)O)c(F)c2)cc1 [Compound No. 125, 2,6-Difluoro-4-[2-(4-methoxyphenylsulfonylamino)ethylthio]phenoxyacetic acid]	–	–
